These results are taken from paper PMC3662054 (Journal of biological inorganic chemistry : JBIC : a …, 2012).

The target of the assay is T1, 20S proteasome (chymotrypsin-like activity) (Homo sapiens, UniProt P28074).
T1 sequence (P28074 60-263): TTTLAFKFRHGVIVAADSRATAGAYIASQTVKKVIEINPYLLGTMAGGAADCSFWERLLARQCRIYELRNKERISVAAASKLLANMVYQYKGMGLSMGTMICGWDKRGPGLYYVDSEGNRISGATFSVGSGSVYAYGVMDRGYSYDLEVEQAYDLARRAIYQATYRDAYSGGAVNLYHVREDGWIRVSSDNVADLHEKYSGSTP
Kind of assay: fluorogenic Suc-LLVY-AMC hydrolysis by purified […] proteasome. The assay is classed as biochemical.

SMILES strings stand for the structures.

The molecule `O=C([O-])CCc1c[nH]c2ccccc12.O=C([O-])CCc1c[nH]c2ccccc12.[Cu+2].c1cnc2c(c1)ccc1cccnc12` [compound 6, Complex 6] came in with an IC50 of 3.3 µM.

Take `O=C([O-])Cc1c[nH]c2ccccc12.O=C([O-])Cc1c[nH]c2ccccc12.O=C([O-])Cc1c[nH]c2ccccc12.O=C([O-])Cc1c[nH]c2ccccc12.[Cu+2].[Cu+2]` [compound 3, Complex 3]: the midpoint of inhibition, the IC50, lay at 3 µM.
